# Values quoted from earlier work, collected in publication PMC11373361, “Expanding the inhibitor space of the WWP1 and WWP2 HECT E3 ligases” (Journal of Enzyme Inhibition and Medicinal Chemistry, 2024).
# Experiments:
# [1] = system: WWP1; set-up: method as in PMID 31097636; details: cited from earlier work
# [2] = system: WWP2; set-up: method as in PMID 30207403; details: cited from earlier work
Structure (SMILES),IC50 [1],IC50 [2]
CCc1ccc(C=CC(=O)Nc2ccc(C(C)=O)cc2)o1 [Heclin],6.9 µM,–
COCCn1c2nc(=O)n(-c3ccccc3)c(=O)c-2nc2ccccc21 [NSC-288387],–,2.3 µM
